According to PMC11434354, “Metabolic and Pharmacokinetic Profiling Studies of N, N-Dimethylaniline-Heliamine in Rats by UHPLC-Q-Orbitrap MS/MS” (Molecules, 2024):

Assay: Metabolite identification of DH in rat plasma, urine, feces and rat liver microsomes by UHPLC-Q-Orbitrap MS/MS
Type: in vivo
Design: key: F*: feces; U*: urine; P*: plasma; LM*: Liver microsome
Settings: rat plasma
Procedure: For the analysis of DH metabolites, the same UHPLC-MS/MS system was used for the plasma analysis, and the ACQUIT UHPLC BEH C18 column was also utilized. Mobile phase A consisted of 0.1% formic acid in water (v/v), while mobile phase B comprised acetonitrile. The flow rate was maintained at 0.2 mL/min, with a 10 µL injection volume. The column temperature was kept constant at 35 °C, and the RS autosampler temperature was maintained at 10 °C. The gradient elution was as follows: 0–3 min(5%B), 3–11 min (7%B), 11–18 min (7%B), and 18–45 min (30%B). A full MS/dd MS^2 mode in positive heated electrospray ionization (HESI) with 140,000 (for MS) and 17,500 (for MS/MS) resolutions was used for the Q–Exactive Plus Orbitrap MS. The compounds identified in full MS/dd MS^2 mode will be scanned using PRM scanning. The following MS parameters were employed: AGC target, 1 × 10^6; Maximum IT, 100 ms; Spray voltage, 3.2 kV; Capillary temp, 320 °C; S-lens RF level, 55; HCD Energy 20, 40, and 60.
Rat liver microsomes were used for in vitro experiments to study DH metabolism in rats more quickly and easily. After that, the cofactors of phases I and II were added to create the phase I and phase II metabolic systems. The composition of the reagent kit and the procedure can be found in our previous work.
For the plasma study, 100 µL of plasma was obtained from rats at 0.5, 1, 2, and 4 h after medicine administration. Then, 300 µL of acetonitrile was added to the above plasma, vortexed for 1 min, and centrifuged for 7 min. The supernatant was collected, and the remaining liquid was dried using nitrogen gas at 40 °C. The blow-dried samples were re-dissolved in 100 µL methanol, sonicated for 1 min, and centrifuged for 7 min.
Urine was collected during the period spanning from 0 to 48 h following administration, with each period’s combined urine comprising 10 mL and 30 mL of acetonitrile added thereto. After a 10 min interval of sonication, the urine samples were transferred into 1.5 mL centrifuge tubes, vortexed for 1 min, and then centrifuged at a speed of 14,000 rpm for 10 min. Successively, the supernatant was merged and subjected to drying by nitrogen gas at 40 °C. The blow-dried samples were re-dissolved in 100 µL of methanol, sonicated for 1 min, and centrifuged for 7 min.
For the fecal study, feces were collected within 0–48 h following administration, dried to powder at room temperature in a shaded area, and combined to yield 8 mL per period, to which 40 mL of acetonitrile was added. Following 30 min of sonication, the samples were transferred to 1.5 mL centrifuge tubes and centrifuged at 14,000 rpm for 10 min. The supernatant was collected and dried with nitrogen at 40 °C before analysis via UHPLC-MS/MS. Before analysis, the blow-dried samples were re-dissolved in 100 µL of methanol, sonicated for 1 min, and centrifuged for 7 min.
Compound Discovery 3.3 was used for data processing. The MS spectrometric features mainly include retention time, exact mass, peak intensity, and fragment ions. The data processing mainly included selecting spectra, aligning retention times, creating pattern traces, creating fish traces, generating expected compounds, finding expected compounds, grouping expected compounds, fish scoring, and marking background compounds. The mass tolerance is less than 5 ppm.

| Rat and LM* (matrices in which DH or the metabolite was detected) | Compound |
| --- | --- |
| U*, LM* | CN(C)c1ccc(C2NCCc3cc(O)c(O)cc32)cc1 (stereo not shown) [M2–A] |
| P*, U*, LM* | COc1cc2c(cc1OC)C(c1ccc(N)cc1)NCC2 (stereo not shown) [M2–B] |
| P*, U*, LM* | CNc1ccc(C2NCCc3cc(OC)c(OC)cc32)cc1 (stereo not shown) [M4–C] |
| F* | CN(C)c1ccc(-c2nccc3cc(O)c(O)cc23)cc1 [M6–A] |
